According to patent US10221129B2, “Inhibitors of human immunodeficiency virus replication” (ViiV HEALTHCARE UK (NO.5) LIMITED, priority 2015, dated 2019):
Like-named read-outs stand apart in the source and are kept apart here.

What was measured:
Type in all cases: cell-based
[1] = tested on: uninfected MT2 cells; assay: Compound cytotoxicity, XTT-based colorimetric assay; conditions: day 4, XTT
Method in brief: (§1)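 Run under the antiviral-assay protocol but without virus. Viability was read on day 4 and CC50 values were derived from the readout.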

[2] = tested on: recombinant NL4-3 virus (nef section replaced with Renilla luciferase gene) in MT-2 cells; assay: HIV cell culture assay (antiviral activity, luciferase readout)
Method in brief: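 Serial compound dilutions tested in MT-2 cells infected for 4-5 days with 293T-derived NL4-3 virus carrying Renilla luciferase in place of part of nef. Antiviral activity quantified as luciferase activity, read with a live-cell substrate.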

[3] = Compound cytotoxicity, XTT-based colorimetric assay; conditions: human, uninfected MT2 cells, day 4, XTT
Method in brief: as §1

[4] = MT-2 cells infected for 4-5 days with recombinant NL4-3 Renilla luciferase virus
[5] = Renilla, NL43, MT-2 cells infected for 4-5 days with recombinant NL4-3 Renilla luciferase virus
[6] = MT-2 cells infected for 4-5 days with recombinant NL4-3 Renilla luciferase virus, read-out: EC50

| SMILES | EC50 [2, 5] [nM] | CC50 at 4 days [3] [nM] | further results |
| --- | --- | --- | --- |
| CN(C)C(=O)C1Cc2cccnc2N1S(=O)(=O)NC(=O)N[C@@H](Cc1cc(F)cc(F)c1)C(=O)N(C)c1ccc2scnc2c1 (single isomer, unassigned) [BB-29] | – | – | CC50 [1]: > 100000 nM; EC50 [2, 4]: 2430 nM |
| CN(C(=O)[C@H](Cc1cc(F)cc(F)c1)NC(=O)NS(=O)(=O)N1CCCC1c1ccccn1)c1ccc2scnc2c1 (single isomer, unassigned) [VN-2] | – | – | CC50 [1]: > 100000 nM; EC50 [2, 4]: 610 nM |
| CN(C(=O)[C@H](Cc1cc(F)cc(F)c1)NC(=O)NS(=O)(=O)N1CCCC1c1ccccc1)c1ccc2scnc2c1 (single isomer, unassigned) [VN-4] | – | – | CC50 [1]: 57500 nM; EC50 [2, 4]: 190 nM |
| CC1Cc2cccnc2N1S(=O)(=O)NC(=O)N[C@@H](Cc1cc(F)cc(F)c1)C(=O)N(C)c1ccc2scnc2c1 (single isomer, unassigned) [VN-7] | – | – | CC50 [1]: > 1000 nM; EC50 [2, 4]: 50 nM |
| CC1CCc2ccccc2N1S(=O)(=O)NC(=O)N[C@@H](Cc1cc(F)cc(F)c1)C(=O)N(C)c1ccc2scnc2c1 (single isomer, unassigned) [VN-10] | 100 | – | CC50 [1]: > 33300 nM |
| CC1CCc2ccccc2N1S(=O)(=O)NC(=O)N[C@@H](Cc1cc(F)cc(F)c1)C(=O)N(C)c1ccc2scnc2c1 (single isomer, unassigned) [VN-11] | – | – | CC50 [1]: 93500 nM; EC50 [2, 4]: 90 nM |
| CC1CN(S(=O)(=O)NC(=O)N[C@@H](Cc2cc(F)cc(F)c2)C(=O)N(C)c2ccc3scnc3c2)c2ncccc21 (single isomer, unassigned) [VN-15] | 30 | – | CC50 [1]: > 100000 nM |
| COc1ccc(N(C)C(=O)[C@H](Cc2ccccc2)NC(=O)NS(=O)(=O)NC(C)c2cccnc2)cc1 (stereo partly drawn) [JB-65] | 620 | > 100000 | – |
| COc1ccc(N(C)C(=O)[C@H](Cc2ccccc2)NC(=O)NS(=O)(=O)NCc2n[nH]c3ccccc23)cc1 [JB-66] | – | – | CC50 [1]: > 100000 nM; EC50 [2, 6]: 1180 nM |
| COc1ccc(N(C)C(=O)[C@H](Cc2ccccc2)NC(=O)NS(=O)(=O)N(C)Cc2n[nH]c(=O)[nH]2)cc1 [JB-69] | 3690 | > 100000 | – |
| CCOc1ccc(N(CC)C(=O)[C@H](Cc2ccccc2)NC(=O)NS(=O)(=O)N2CCc3cc(C)ccc32)cc1 [JB-70] | 100 | > 33300 | – |
| CCOc1ccc(N(CC)C(=O)[C@H](Cc2ccccc2)NC(=O)NS(=O)(=O)N2CCc3cccnc32)cc1 [JB-71] | 130 | > 33300 | – |
| CCOc1ccc(N(CC)C(=O)[C@H](Cc2ccccc2)NC(=O)NS(=O)(=O)N2CCc3c(Cl)cccc32)cc1 [JB-72] | 180 | > 33300 | – |
| CCOc1ccc(N(CC)C(=O)[C@H](Cc2ccccc2)NC(=O)NS(=O)(=O)N2CCc3ccccc32)cc1 [JB-73] | 50 | > 33300 | – |
| CCOc1ccc(N(CC)C(=O)[C@H](Cc2ccccc2)NC(=O)NS(=O)(=O)N2CCc3cc(OC)cc(C)c32)cc1 [JB-74] | 1120 | > 100000 | – |
| CCOc1ccc(N(CC)C(=O)[C@H](Cc2ccccc2)NC(=O)NS(=O)(=O)n2ccc3ccccc32)cc1 [JB-75] | 70 | > 33300 | – |
| CCOc1ccc(N(CC)C(=O)[C@H](Cc2ccccc2)NC(=O)NS(=O)(=O)N2CCc3cc(Cl)cc(Cl)c32)cc1 [JB-76] | 8750 | > 33300 | – |
| COc1ccc(N(C)C(=O)[C@H](Cc2ccccc2)NC(=O)NS(=O)(=O)n2ccc3cccnc32)cc1 [JB-77] | 450 | > 100000 | – |
| COc1ccc(N(C)C(=O)[C@H](Cc2ccccc2)NC(=O)NS(=O)(=O)n2ccc3c(F)c(F)c(F)c(F)c32)cc1 [JB-78] | 370 | > 33300 | – |
| COc1ccc(N(C)C(=O)[C@H](Cc2ccccc2)NC(=O)NS(=O)(=O)N2Cc3ccccc3S2(=O)=O)cc1 [JB-79] | 8610 | > 100000 | – |
| COc1ccc(N(C)C(=O)[C@H](Cc2ccccc2)NC(=O)NS(=O)(=O)n2ccc3cnccc32)cc1 [JB-80] | 360 | – | CC50 at 4 day [3]: > 100000 nM |
| CCOc1ccc(NS(=O)(=O)NC(=O)N[C@@H](Cc2ccccc2)C(=O)N(C)c2ccc(OC)cc2)cc1 [JB-81] | 260 | > 100000 | – |
| CN(C(=O)[C@H](Cc1cc(F)cc(F)c1)NC(=O)NS(=O)(=O)N1CCCc2ccccc21)c1ccc2scnc2c1 [VN-5] | 40 | 95900 | – |
| CN(C(=O)[C@H](Cc1cc(F)cc(F)c1)NC(=O)NS(=O)(=O)n1ccc2cccnc21)c1ccc2scnc2c1 [VN-8] | 50 | > 100000 | – |
| CN(C(=O)[C@H](Cc1cc(F)cc(F)c1)NC(=O)NS(=O)(=O)N1CCCc2cccnc21)c1ccc2scnc2c1 [VN-9] | 10 | > 100000 | – |
| Cc1ccc2c(n1)N(S(=O)(=O)NC(=O)N[C@@H](Cc1cc(F)cc(F)c1)C(=O)N(C)c1ccc3scnc3c1)CCC2 [VN-12] | 10 | > 50000 | – |
| CN(C(=O)[C@H](Cc1cc(F)cc(F)c1)NC(=O)NS(=O)(=O)N(C)C)c1ccc2scnc2c1 [VN-16] | 30 | > 100000 | – |

| SMILES | EC50 [2, 5] [nM] | CC50 at 4 days [3] [nM] | further results |
| --- | --- | --- | --- |
| CN(C(=O)[C@H](Cc1cc(F)cc(F)c1)NC(=O)NS(=O)(=O)N1CCc2ccnnc21)c1ccc2scnc2c1 [VN-17] | 70 | > 100000 | – |
| CN(C(=O)[C@H](Cc1cc(F)cc(F)c1)NC(=O)NS(=O)(=O)N1CCc2cncnc21)c1ccc2scnc2c1 [VN-19] | – | – | CC50 [1]: 70500 nM; EC50 [2, 6]: 680 nM |
| CN(C(=O)[C@H](Cc1cc(F)cc(F)c1)NC(=O)NS(=O)(=O)n1ccc2cncnc21)c1ccc2scnc2c1 [VN-20] | – | – | CC50 [1]: > 100000 nM; EC50 [2, 6]: 940 nM |
| CCN(CC)S(=O)(=O)NC(=O)N[C@@H](Cc1cc(F)cc(F)c1)C(=O)N(C)c1ccc2scnc2c1 [VN-21] | 20 | > 33300 | – |
| CN(C(=O)[C@H](Cc1cc(F)cc(F)c1)NC(=O)NS(=O)(=O)N1CCCC1)c1ccc2scnc2c1 [VN-22] | 50 | > 100000 | – |
| CN(C(=O)[C@H](Cc1cc(F)cc(F)c1)NC(=O)NS(=O)(=O)N1CCOCC1)c1ccc2scnc2c1 [VN-23] | 170 | > 100000 | – |
| CN(C(=O)[C@H](Cc1cc(F)cc(F)c1)NC(=O)NS(=O)(=O)N1CCCCC1)c1ccc2scnc2c1 [VN-24] | 90 | > 100000 | – |
| CN(C(=O)[C@H](Cc1cc(F)cc(F)c1)NC(=O)NS(N)(=O)=O)c1ccc2scnc2c1 [VN-25] | 150 | 79600 | – |
| CN(C(=O)[C@H](Cc1cc(F)cc(F)c1)NC(=O)NS(=O)(=O)N1CC[C@H](O)C1)c1ccc2scnc2c1 [VN-26] | 110 | 20000 | – |
| CN(C(=O)[C@H](Cc1cc(F)cc(F)c1)NC(=O)NS(=O)(=O)N1CC[C@@H](O)C1)c1ccc2scnc2c1 [VN-27] | 90 | > 100000 | – |
| CN(C(=O)[C@H](Cc1cc(F)cc(F)c1)NC(=O)N1CCN(C)S1(=O)=O)c1ccc2scnc2c1 [VN-28] | 250 | > 100000 | – |
| CN(C(=O)[C@H](Cc1cc(F)cc(F)c1)NC(=O)NS(=O)(=O)N1CCc2cccnc21)c1ccc2scnc2c1 [ZY-1] | 10 | > 100000 | – |
| CN(C(=O)[C@H](Cc1ccccc1)NC(=O)NS(=O)(=O)N1CCc2cccnc21)c1ccc2scnc2c1 [ZY-2] | 50 | > 53000 | – |
| CN(C(=O)[C@H](Cc1cc(F)cc(F)c1)NC(=O)NS(=O)(=O)N1CCc2ccccc21)c1ccc2scnc2c1 [ZY-8] | 20 | 88000 | – |
| CCN(c1ccccc1)S(=O)(=O)NC(=O)N[C@@H](Cc1cc(F)cc(F)c1)C(=O)N(C)c1ccc2scnc2c1 [ZY-9] | 180 | > 100000 | – |
| Cc1ccc(NS(=O)(=O)NC(=O)N[C@@H](Cc2cc(F)cc(F)c2)C(=O)N(C)c2ccc3scnc3c2)cc1 [ZY-10] | 50 | > 100000 | – |
| CN(C(=O)[C@H](Cc1cc(F)cc(F)c1)NC(=O)NS(=O)(=O)Nc1ccc(C(C)(C)C)cc1)c1ccc2scnc2c1 [ZY-11] | 80 | 66900 | – |
| CN(C(=O)[C@H](Cc1cc(F)cc(F)c1)NC(=O)NS(=O)(=O)N1CCc2cc(F)ccc21)c1ccc2scnc2c1 [ZY-12] | 110 | > 100000 | – |
| CN(C(=O)[C@H](Cc1cc(F)cc(F)c1)NC(=O)NS(=O)(=O)N1CCc2cccc(F)c21)c1ccc2scnc2c1 [ZY-15] | 30 | > 33300 | – |
| CN(C(=O)[C@H](Cc1cc(F)cc(F)c1)NC(=O)NS(=O)(=O)n1ccc2nccnc21)c1ccc2scnc2c1 [ZY-18] | 150 | > 100000 | – |
| CN(C(=O)[C@H](Cc1cc(F)cc(F)c1)NC(=O)NS(=O)(=O)n1ncc2c(Cl)cccc21)c1ccc2scnc2c1 [ZY-19] | 360 | > 33300 | – |
| CN(C(=O)[C@H](Cc1cc(F)cc(F)c1)NC(=O)NS(=O)(=O)n1ncc2cc(F)ccc21)c1ccc2scnc2c1 [ZY-20] | 4190 | > 100000 | – |
| CN(C(=O)[C@H](Cc1cc(F)cc(F)c1)NC(=O)NS(=O)(=O)N1CCc2cc(Br)cnc21)c1ccc2scnc2c1 [ZY-21] | 490 | > 100000 | – |
| CN(C(=O)[C@H](Cc1cc(F)cc(F)c1)NC(=O)NS(=O)(=O)N1CCc2nccnc21)c1ccc2scnc2c1 [ZY-22] | 520 | > 100000 | – |
| Cc1nc2cc(N(C)C(=O)[C@H](Cc3cc(F)cc(F)c3)NC(=O)NS(=O)(=O)N3CCc4cccnc43)ccc2s1 [ZY-23] | 80 | > 100000 | – |
| CN(C(=O)[C@H](Cc1cc(F)cc(F)c1)NC(=O)NS(=O)(=O)N1CCc2cccnc21)c1ccc2c(c1)OCCO2 [ZY-24] | 60 | 53400 | – |
| CN(C(=O)[C@H](Cc1cc(F)cc(F)c1)NC(=O)NS(=O)(=O)N1CCc2cccnc21)c1ccc(Cl)cc1 [ZY-25] | 30 | 97100 | – |
